The NIST ThermoML archive (doi:10.1021/acs.jced.8b00370)

Experiment: mn = molality of the nth substance listed, in mol/kg
Conditions: 100 kPa, Liquid; for speed of sound: Frequency=3 MHz, Single path-length method; for mass density: Vibrating tube method

OC[C@H]1O[C@@](CO)(O[C@H]2O[C@H](CO)[C@@H](O)[C@H](O)[C@H]2O)[C@@H](O)[C@@H]1O [D-sucrose] + O
Conditions	mass density, 288.15 K [kg/m3]	mass density, 298.15 K [kg/m3]	mass density, 308.15 K [kg/m3]	mass density, 318.15 K [kg/m3]	speed of sound, 288.15 K [m/s]	speed of sound, 298.15 K [m/s]	speed of sound, 308.15 K [m/s]	speed of sound, 318.15 K [m/s]
m1 = 0.1002	1012.01	1009.81	1006.68	1002.77	1476.3	1506	1528.2	1544
m1 = 0.2007	1024.37	1022.04	1018.8	1014.82	1486.2	1515	1536.5	1551.6
m1 = 0.3011	1036.19	1033.73	1030.39	1026.34	1496	1524	1544.7	1559.1
m1 = 0.4034	1047.72	1045.13	1041.69	1037.58	1506	1533.2	1553.1	1566.7
m1 = 0.4996	1058.12	1055.43	1051.89	1047.73	1515.3	1541.7	1561	1574.3
m1 = 0.6018	1068.73	1065.92	1062.29	1058.07	1525.2	1550.6	1569.3	1581.7
m1 = 0.7022	1078.71	1075.81	1072.09	1067.82	1534.9	1559.3	1577.2	1589.3
m1 = 0.7978	1087.87	1084.86	1081.07	1076.72	1543.9	1567.4	1584.8	1596.1
m1 = 0.8955	1096.86	1093.77	1089.9	1085.49	1552.9	1575.6	1592.3	1603.2
m1 = 0.9969	1105.83	1102.65	1098.71	1094.23	1562.2	1583.8	1600.1	1611
